Test results as given in patent publication US20040023884A1, “Biologically active peptides from functional domains of bactericidal/permeability-increasing protein and uses thereof” (priority 1993, published 2004).
Entries after “also recorded” stand apart in the source; their conditions may differ. Ends that are not written are not given here.

Assays:
[1] = 3H-heparin binding assay (affinity and capacity); conditions: for Heparin Capacity: heparin bound at saturation; for Kd: read-out: Heparin Affinity
How it was run: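 Peptide fragments were bound to PVDF-membrane wells and incubated with 3H-heparin in blocking buffer for 1 h at 4 °C. After washing, bound radioactivity was quantified by liquid scintillation counting, with BSA background subtracted; rBPI23 served as positive control.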

Staphylococcus aureus = assay: Radial diffusion bactericidal assay, Staphylococcus aureus; assay type: cell-based; conditions: for bactericidal activity (in words): FIG. 10e; for pmol added to well to achieve a 30 mm^2 bactericidal zone, S. aureus: radial diffusion, PROBIT analysis
RAW 264.7 cells = assay: LPS neutralization cellular proliferation assay, RAW 264.7 cells; assay type: cell-based, mouse
How it was run: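 Mouse RAW 264.7 cells were primed 24 h with 50U/mL mouse γ-interferon, then exposed about 15 h to E. coli O113 LPS in serum-free RPMI with or without BPI peptides at 25 ng/mL–50 μg/mL. Proliferation was quantified by [^3H]-thymidine uptake, 1 μCi/well, added at 5 h.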

[2] = Lipid A binding competition with [125I]-rLBP; conditions: for IC50: read-out: IC50 (inhibition of Lipid A binding of radiolabeled rLBP)
Description: A second binding assay was developed, wherein radiolabeled recombinant LPS binding protein ([^125I]-rLBP) was used instead of radiolabeled rBPI23 in competition experiments with BPI functional domain peptides BPI.2, BPI.3, BPI.4, BPI.5, BPI.7, BPI.13, BPI.14, BPI.29, BPI.30 and BPI.48, rBPI, rBPI21Δcys, and rLBP25 were included in these assays as controls. In these experiments, Lipid A was adsorbed to the wells at a concentration of 0.7 μg/mL in methanol. Incubation of radiolabeled rLBP (a total of 650,000 cpm and a specific activity of 3.45 μCi/μg) was performed for 2.5 hr at 37° C. in the presence of BPI peptides in a series of increasing concentrations. IC50 values (i.e., the concentration at which Lipid A binding of radiolabeled rLBP25 is inhibited to one half the value achieved in the absence of the peptide) are shown in accompanying Table XI.

[3] = system: rough mutant E. coli J5 bacteria; assay: Radial diffusion bactericidal assay, E. coli J5; assay type: cell-based; conditions: for bactericidal activity (in words) / pmol added to well to achieve a 30 mm^2 bactericidal zone, E. coli J5: radial diffusion; for bactericidal activity (in words): E. coli J5; for pmol added to well to achieve a 30 mm^2 bactericidal zone, E. coli J5: PROBIT analysis, E. coli J5 (rough)
How it was run: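 Log-phase bacteria (3 h at 37 °C in tryptic soy broth), washed in 10 mM sodium phosphate pH 7.4, were embedded at 4×10^6 CFU/mL in underlayer agarose. BPI proteolytic fragments (5 or 10 μL) went into 3 mm wells for 3 h at 37 °C, then agarose overlay and overnight 37 °C growth. Clear zones were measured by micrometer.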

[4] = system: E. coli 0111:B4 (smooth) bacteria; assay: Radial diffusion bactericidal assay, E. coli 0111:B4; assay type: cell-based; conditions: radial diffusion; for bactericidal activity (in words): E. coli 0111:B4; for pmol added to well to achieve a 30 mm^2 bactericidal zone, E. coli O111:B4: PROBIT analysis, E. coli O111:B4 (smooth)

| Substance | heparin binding capacity (in words) [1] | Heparin Capacity [1] | Kd [1] | bactericidal activity (in words) (Staphylococcus aureus) | pmol added to well to achieve a 30 mm^2 bactericidal zone, S. aureus (Staphylococcus aureus) | EC50 (peptide concentration at which the growth inhibitory effect of LPS was reversed by 50%) (RAW 264.7 cells) | IC50 (peptide concentration at which RAW cell growth was inhibited by 50%) (RAW 264.7 cells) | IC50 (inhibition of Lipid A binding of radiolabeled rLBP) [2] | IC50 [2] | bactericidal activity (in words) [3] | pmol added to well to achieve a 30 mm^2 bactericidal zone, E. coli J5 [3] | heparin binding activity (in words) [1] | bactericidal activity (in words) [4] | pmol added to well to achieve a 30 mm^2 bactericidal zone, E. coli O111:B4 [4] | concentration above which appreciable bactericidal activity was shown [3] |
| --- | --- | --- | --- | --- | --- | --- | --- | --- | --- | --- | --- | --- | --- | --- | --- |
| KSKVGWLIQLFHKKKSKVGWLIQLFHKK-NH2 (C-terminus assumed) [BPI.29] | extremely high heparin capacity | 463.7 ng | 427 nM | moderate levels of activity | 15,508.98 pmol | 0.1 ± 0.02 µg/mL | 13.6 ± 0.4 µg/mL | 0.44 µg/mL | 130 nM | greater bactericidal activity; also recorded: highly bactericidal | 441.60 pmol | – | – | – | – |
| IKISGKWKAQKRFLK [BPI.2] | low heparin binding capacity | 203.6 ng | 346 nM | – | b (no detectable activity up to 5 μg/well) | – | — (No proliferation decrease up to 50 μg/ml) | 2.36 µg/mL | 1300 nM | – | 3,001.50 pmol | little or no heparin binding activity | exhibited bactericidal activity | b (no detectable activity up to 5 μg/well) | – |
| KWKAQKRFLKKSKVGWLIQLFHKK-NH2 (C-terminus assumed) [BPI.30] | extremely high heparin capacity | 499.4 ng | 592 nM | highest amount of bactericidal activity | 1,216.37 pmol | 1.2 ± 1.1 µg/mL | 10.5 ± 1.2 µg/mL | 0.75 µg/mL | 250 nM | highest bactericidal activity; also recorded: highly bactericidal | 76.38 pmol | – | – | 608.20 pmol | – |
| KSKVGWLIQLFHKK-NH2 (C-terminus assumed) [BPI.13] | – | 369.1 ng | 984 nM | low levels of activity | 5,341.27 pmol | 1.9 ± 0.4 µg/mL | – | 1.7 µg/mL | 1000 nM | – | 440.80 pmol | – | – | 5,857.40 pmol | greater than 30 μg/mL |
| NVGLKFSISNANIKISGKWKAQKRFLK [BPI.3] | – | 264.5 ng | 781 nM | – | – | – | – | 0.75 µg/mL | 250 nM | exhibited bactericidal activity | 695.78 pmol | moderate heparin binding activity | exhibited bactericidal activity | b (no detectable activity up to 5 μg/well) | – |
| KWKAQKRFLKKWKAQKRFLK-NH2 (C-terminus assumed) [BPI.7] | extremely high heparin binding capacity | 405.6 ng | 908 nM | low levels of activity | 3,769.60 pmol | >50 µg/mL | – | 0.26 µg/mL | 100 nM | exhibited bactericidal activity; also recorded: high levels of bactericidal activity; also recorded: highly bactericidal | 175.40 pmol | – | exhibited bactericidal activity | 2,072.10 pmol | – |
| KWKAAARFLKKWKAAARFLK [BPI.48] | extremely high heparin capacity | 442.3 ng | 1420 nM | – | 4,089.14 pmol | 1.3 ± 0.9 µg/mL | 5.0 ± 0.1 µg/mL | 0.48 µg/mL | 200 nM | highly bactericidal | 42.40 pmol | – | – | 253.54 pmol | – |
